# Measurements from PMC6210068 (ACS Omega, 2018).
# Assays:
# hDAT = hDAT (Homo sapiens, UniProt Q01959); assay: Radioligand binding at DAT; details: 10 μM; [3H]WIN35428; negative = enhanced radioligand binding
# mA3AR = biological target: T1, mA3AR (Mus musculus, UniProt Q61618); assay: Mouse A3AR binding
# T1 sequence (Q61618 1-319): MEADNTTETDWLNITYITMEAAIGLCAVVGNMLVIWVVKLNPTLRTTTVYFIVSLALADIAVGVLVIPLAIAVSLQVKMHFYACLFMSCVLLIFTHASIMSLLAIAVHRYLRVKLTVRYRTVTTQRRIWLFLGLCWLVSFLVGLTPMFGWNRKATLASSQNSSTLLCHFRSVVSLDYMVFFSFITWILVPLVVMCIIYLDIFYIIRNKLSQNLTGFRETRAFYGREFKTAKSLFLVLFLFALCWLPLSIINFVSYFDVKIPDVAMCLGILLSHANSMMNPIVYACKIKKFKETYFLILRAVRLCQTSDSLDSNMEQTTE
# hA3AR = biological target: T2, hA3AR (Homo sapiens, UniProt P0DMS8); assay: A3AR binding
# T2 sequence (P0DMS8 1-318): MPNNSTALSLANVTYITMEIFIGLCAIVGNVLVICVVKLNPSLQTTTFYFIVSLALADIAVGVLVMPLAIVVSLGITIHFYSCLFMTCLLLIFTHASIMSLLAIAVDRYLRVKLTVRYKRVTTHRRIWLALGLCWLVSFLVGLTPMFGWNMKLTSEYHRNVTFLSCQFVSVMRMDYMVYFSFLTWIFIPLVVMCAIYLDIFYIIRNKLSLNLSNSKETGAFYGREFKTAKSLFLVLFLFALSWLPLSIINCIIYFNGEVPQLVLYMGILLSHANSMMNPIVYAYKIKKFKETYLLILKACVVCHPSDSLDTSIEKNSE
# rat kidney TSPO = rat kidney TSPO (Rattus norvegicus, UniProt P16257); assay: Radioligand binding at TSPO; details: for Ki: TSPO, rat TSPO, [3H]PK11195
# DOR [1] = biological target: T3, DOR (Homo sapiens, UniProt P41143); assay: Radioligand binding at DOR
# hA2AAR = hA2AAR (Homo sapiens, UniProt P29274); assay: hA2AAR binding; details: for inhibition at 10 µM: read-out: binding inhibition at hA2AAR (% at 10 μM)
# hA1AR = biological target: T4, hA1AR (Homo sapiens, UniProt P30542); assay: hA1AR binding; details: read-out: binding inhibition at hA1AR (% at 10 μM)
# T4 sequence (P30542 1-326): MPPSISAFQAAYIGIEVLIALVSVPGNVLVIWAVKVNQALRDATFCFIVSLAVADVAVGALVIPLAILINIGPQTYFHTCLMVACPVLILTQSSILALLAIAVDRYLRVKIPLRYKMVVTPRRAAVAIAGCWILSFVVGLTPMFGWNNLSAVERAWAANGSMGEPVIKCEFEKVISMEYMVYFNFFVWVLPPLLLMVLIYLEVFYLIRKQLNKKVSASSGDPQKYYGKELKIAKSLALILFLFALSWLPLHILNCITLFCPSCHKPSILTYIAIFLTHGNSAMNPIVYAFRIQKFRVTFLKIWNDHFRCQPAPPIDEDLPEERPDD
# KOR [2] = biological target: T5, KOR (Homo sapiens, UniProt P41145); assay: β-arrestin-recruitment TANGO assay at KOR; assay type: cell-based; details: 10 μM; vs naloxone 121 = 100% inhibition; agonist 109 (3 nM)
# DOR [3] = biological target: T3, DOR; assay: β-arrestin-recruitment TANGO assay at DOR; assay type: cell-based; details: 10 μM
# KOR [4] = biological target: T5, KOR; assay: biochemical; assay type: binding; details: for Ki: KOR
# MOR [5] = biological target: T6, MOR (Homo sapiens, UniProt P35372); assay: biochemical; assay type: binding; details: for MOR, inhibition of radioligand binding at 10 μM (class): Table 2
# MOR [6] = biological target: T6, MOR; assay: β-arrestin-recruitment TANGO assay at MOR; assay type: cell-based; details: 10 μM
# KOR [7] = biological target: T5, KOR; assay: cell-based; assay type: cell-based
# KOR [8] = biological target: T5, KOR; assay type: cell-based; details: 1 μM 98
# mA2AAR = mA2AAR (Mus musculus, UniProt Q60613); assay: mA2AAR binding; details: read-out: mA2AAR binding, % inhibition at 10 μM
# mA1AR = biological target: T7, mA1AR (Mus musculus, UniProt Q60612); assay: mA1AR binding; details: read-out: mA1AR binding, % inhibition at 10 μM
# T7 sequence (Q60612 1-326): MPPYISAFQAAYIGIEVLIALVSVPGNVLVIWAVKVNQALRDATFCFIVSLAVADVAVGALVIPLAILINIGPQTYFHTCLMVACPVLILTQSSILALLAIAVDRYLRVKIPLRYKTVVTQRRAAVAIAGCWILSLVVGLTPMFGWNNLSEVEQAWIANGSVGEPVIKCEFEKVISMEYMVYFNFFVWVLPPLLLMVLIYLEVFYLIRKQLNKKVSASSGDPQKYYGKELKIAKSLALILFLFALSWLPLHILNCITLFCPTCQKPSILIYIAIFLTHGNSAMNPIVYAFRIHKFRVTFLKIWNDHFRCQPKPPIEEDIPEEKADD
# rat σ2 receptor = biological target: T8, rat σ2 receptor (Rattus norvegicus, UniProt Q5U3Y7); assay: PDSP binding, σ2 receptor
# T8 sequence (Q5U3Y7 1-176): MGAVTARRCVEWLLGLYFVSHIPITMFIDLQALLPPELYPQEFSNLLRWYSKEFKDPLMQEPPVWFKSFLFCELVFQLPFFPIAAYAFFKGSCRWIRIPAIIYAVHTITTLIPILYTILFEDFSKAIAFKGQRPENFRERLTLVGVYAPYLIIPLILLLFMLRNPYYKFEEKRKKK
# hNOP = hNOP (Homo sapiens, UniProt P41146); assay: Radioligand binding at NOP
# 5HT2C serotonin receptor = biological target: T9, 5HT2C serotonin receptor (Homo sapiens, UniProt P28335); assay: PDSP off-target binding, 5HT2C
# T9 sequence (P28335 33-458): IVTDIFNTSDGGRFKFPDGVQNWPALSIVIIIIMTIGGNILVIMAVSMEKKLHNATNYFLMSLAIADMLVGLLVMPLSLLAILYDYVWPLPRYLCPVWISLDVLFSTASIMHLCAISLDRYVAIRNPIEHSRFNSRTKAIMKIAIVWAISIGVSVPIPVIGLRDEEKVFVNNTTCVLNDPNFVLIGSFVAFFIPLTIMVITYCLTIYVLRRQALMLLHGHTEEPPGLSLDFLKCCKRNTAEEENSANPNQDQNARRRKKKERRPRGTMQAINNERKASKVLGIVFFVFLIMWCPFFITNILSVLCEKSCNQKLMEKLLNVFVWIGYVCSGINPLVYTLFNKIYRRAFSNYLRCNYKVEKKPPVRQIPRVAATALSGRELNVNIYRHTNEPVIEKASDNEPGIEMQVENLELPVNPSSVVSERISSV
# [9] = [3H]U69593, mean ± SEM, N = 2–4
# hDAT, sequence (Q01959 whole entry): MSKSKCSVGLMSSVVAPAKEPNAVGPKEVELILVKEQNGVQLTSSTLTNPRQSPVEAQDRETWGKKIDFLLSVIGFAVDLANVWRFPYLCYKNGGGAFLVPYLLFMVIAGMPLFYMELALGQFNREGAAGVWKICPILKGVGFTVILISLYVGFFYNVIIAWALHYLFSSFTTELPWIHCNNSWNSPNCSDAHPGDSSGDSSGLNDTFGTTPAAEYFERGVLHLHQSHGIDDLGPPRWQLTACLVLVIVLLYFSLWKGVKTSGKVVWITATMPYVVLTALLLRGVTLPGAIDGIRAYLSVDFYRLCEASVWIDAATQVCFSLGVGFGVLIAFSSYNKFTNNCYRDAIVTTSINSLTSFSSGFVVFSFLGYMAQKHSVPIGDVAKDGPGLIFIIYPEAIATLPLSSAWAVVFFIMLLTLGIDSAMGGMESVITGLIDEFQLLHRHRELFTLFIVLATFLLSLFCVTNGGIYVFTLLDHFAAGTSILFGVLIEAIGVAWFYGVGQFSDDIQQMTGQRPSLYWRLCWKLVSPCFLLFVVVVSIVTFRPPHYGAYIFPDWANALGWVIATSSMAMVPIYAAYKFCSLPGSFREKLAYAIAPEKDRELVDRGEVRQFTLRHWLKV
# T5 sequence (P41145 whole entry): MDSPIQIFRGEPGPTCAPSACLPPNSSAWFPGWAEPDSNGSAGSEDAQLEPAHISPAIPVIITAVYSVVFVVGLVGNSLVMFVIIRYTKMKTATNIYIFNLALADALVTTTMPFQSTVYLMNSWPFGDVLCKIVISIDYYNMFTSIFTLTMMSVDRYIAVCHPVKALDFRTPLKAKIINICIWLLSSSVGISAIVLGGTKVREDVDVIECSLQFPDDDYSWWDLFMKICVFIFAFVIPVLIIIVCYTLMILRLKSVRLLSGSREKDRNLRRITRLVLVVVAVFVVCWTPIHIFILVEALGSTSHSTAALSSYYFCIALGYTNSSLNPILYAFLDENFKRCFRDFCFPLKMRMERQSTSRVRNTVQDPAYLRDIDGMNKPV
# hA2AAR, sequence (P29274 whole entry): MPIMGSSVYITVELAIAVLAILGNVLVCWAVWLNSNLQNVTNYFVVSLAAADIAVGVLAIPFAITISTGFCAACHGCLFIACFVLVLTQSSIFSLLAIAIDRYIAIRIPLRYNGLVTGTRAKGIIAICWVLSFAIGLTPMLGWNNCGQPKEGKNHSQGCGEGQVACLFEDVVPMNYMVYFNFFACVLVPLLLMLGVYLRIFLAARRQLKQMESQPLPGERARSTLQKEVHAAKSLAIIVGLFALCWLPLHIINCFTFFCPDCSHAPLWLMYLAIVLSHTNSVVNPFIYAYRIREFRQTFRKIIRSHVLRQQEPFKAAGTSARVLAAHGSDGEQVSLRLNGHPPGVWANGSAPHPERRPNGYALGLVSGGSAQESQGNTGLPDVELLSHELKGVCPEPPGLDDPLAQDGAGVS
# T3 sequence (P41143 whole entry): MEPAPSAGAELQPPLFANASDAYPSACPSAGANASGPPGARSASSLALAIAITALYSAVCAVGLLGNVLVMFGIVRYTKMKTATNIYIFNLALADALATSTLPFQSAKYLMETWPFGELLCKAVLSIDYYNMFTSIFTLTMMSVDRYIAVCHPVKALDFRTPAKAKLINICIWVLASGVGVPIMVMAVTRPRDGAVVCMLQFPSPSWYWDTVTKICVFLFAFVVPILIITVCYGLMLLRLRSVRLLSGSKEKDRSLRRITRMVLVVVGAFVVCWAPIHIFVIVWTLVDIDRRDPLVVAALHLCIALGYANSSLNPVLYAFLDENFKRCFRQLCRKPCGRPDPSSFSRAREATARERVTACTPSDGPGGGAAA
# T6 sequence (P35372 whole entry): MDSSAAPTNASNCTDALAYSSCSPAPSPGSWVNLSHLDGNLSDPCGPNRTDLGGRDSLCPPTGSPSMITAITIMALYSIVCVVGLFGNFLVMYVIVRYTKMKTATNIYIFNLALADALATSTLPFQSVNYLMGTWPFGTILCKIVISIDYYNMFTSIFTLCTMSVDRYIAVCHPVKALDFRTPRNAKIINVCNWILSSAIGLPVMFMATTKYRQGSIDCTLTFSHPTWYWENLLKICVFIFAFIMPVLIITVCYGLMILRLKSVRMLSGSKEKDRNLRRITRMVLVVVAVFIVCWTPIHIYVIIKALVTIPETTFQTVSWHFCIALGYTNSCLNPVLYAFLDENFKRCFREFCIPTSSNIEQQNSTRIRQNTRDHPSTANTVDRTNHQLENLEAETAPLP
# rat kidney TSPO, sequence (P16257 whole entry): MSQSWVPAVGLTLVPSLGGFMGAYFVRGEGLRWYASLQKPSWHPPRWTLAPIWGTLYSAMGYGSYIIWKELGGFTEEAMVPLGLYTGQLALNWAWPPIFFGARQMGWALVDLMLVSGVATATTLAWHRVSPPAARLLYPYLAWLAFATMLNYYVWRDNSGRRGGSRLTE
# mA2AAR, sequence (Q60613 whole entry): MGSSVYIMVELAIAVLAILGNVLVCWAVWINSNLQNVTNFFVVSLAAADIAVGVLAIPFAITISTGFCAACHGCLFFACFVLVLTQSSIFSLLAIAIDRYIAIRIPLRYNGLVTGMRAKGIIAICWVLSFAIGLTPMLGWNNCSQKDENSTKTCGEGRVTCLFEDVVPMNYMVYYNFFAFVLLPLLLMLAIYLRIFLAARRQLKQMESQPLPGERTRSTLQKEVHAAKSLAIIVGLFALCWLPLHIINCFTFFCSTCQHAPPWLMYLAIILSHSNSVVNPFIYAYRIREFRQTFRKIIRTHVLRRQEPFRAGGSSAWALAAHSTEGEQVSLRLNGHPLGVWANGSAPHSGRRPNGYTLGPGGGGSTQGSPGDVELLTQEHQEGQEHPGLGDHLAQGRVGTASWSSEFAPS
# hNOP, sequence (P41146 whole entry): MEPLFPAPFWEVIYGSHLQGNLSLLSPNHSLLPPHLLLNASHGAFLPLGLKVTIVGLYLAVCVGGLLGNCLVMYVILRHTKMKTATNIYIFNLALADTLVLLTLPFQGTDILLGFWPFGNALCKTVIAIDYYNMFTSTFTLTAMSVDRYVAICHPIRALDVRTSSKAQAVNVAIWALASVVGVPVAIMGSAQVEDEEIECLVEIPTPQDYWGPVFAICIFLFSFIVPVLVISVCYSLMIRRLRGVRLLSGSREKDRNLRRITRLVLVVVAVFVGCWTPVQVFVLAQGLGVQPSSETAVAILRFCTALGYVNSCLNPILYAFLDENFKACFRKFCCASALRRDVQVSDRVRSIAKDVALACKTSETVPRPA
Compound,"DAT, inhibition, % of control at 10 μM (hDAT)",Ki (mA3AR) [µM],Ki (hA3AR) [µM],Ki (rat kidney TSPO) [µM],"DOR, inhibition of radioligand binding at 10 μM (class) (DOR [1]; Table 1)",Ki (KOR [4]; [9]) [µM],"MOR, inhibition of radioligand binding at 10 μM (class) (MOR [5])","DOR, inhibition of radioligand binding at 10 μM (class) (DOR [1]; Table 2)",inhibition at 10 µM (mA2AAR) [%],inhibition at 10 µM (mA1AR) [%],also measured
CNC(=O)[C@@]12C[C@@H]1[C@@H](n1cnc3c(NCCCO)nc(C#Cc4ccc(Cl)s4)nc31)[C@H](O)[C@@H]2O [compound 20],–107 ± 4%,0.105,0.00204 ± 0.00146,6.16 ± 0.05,^e (30–50% inhibition of radioligand binding at 10 μM),–,–,–,–,–,–
CNC(=O)[C@@]12C[C@@H]1[C@@H](n1cnc3c(NCCC(F)(F)F)nc(C#Cc4ccc(Cl)s4)nc31)[C@H](O)[C@@H]2O [compound 19],15%,0.071,0.0037 ± 0.001,1.3 ± 0.15,^e (30–50% inhibition of radioligand binding at 10 μM),–,–,–,–,–,inhibition at 10 µM (hA2AAR): 21%; inhibition at 10 µM (hA1AR): 46%
CNc1nc(C#Cc2ccc(Cl)s2)nc2c1ncn2[C@H]1[C@H](O)[C@H](O)[C@]2(C(=O)OCc3ccccc3)C[C@H]12 [compound 35],<20%,0.891,0.00781 ± 0.0024,4.05 ± 0.74,–,0.629 ± 0.183,^c (30–50% inhibition of radioligand binding at 10 μM),^d (<30% inhibition of radioligand binding at 10 μM),–,–,"KOR Antag (%) (KOR [2]): 112.9%; DOR Antag (%) (DOR [3]; vs naloxone 121 = 100% inhibition): 14.1%; DOR Ag (%) (DOR [3]; vs standard agonist = 100%): –1.9%; MOR Antag (%) (MOR [6]; vs naloxone 121 = 100% inhibition, agonist 99 (300 nM)): 82.1%; MOR Ag (%) (MOR [6]; vs standard agonist = 100%): 3.1%"
"CNc1nc(C#Cc2ccccc2)nc2c1ccn2[C@H]1[C@H](O)[C@H](O)[C@@H]2C[C@@H]21 [compound 54, (1R,2R,3S,4R,5S)-4-(4-(Methylamino)-2-(phenylethynyl)-7H-pyrrolo[2,3-d]pyrimidin-7-yl)bicyclo[3.1.0]hexane-2,3-diol]",−58%,–,0.0856 ± 0.012,–,–,1.12 ± 0.22,–,–,–,–,"inhibition of agonist 98 in cAMP assay (KOR [7]; 100 nM 98): did not inhibit; inhibition at 30 µM (KOR [7]; CHO, read-out: inhibition of cAMP accumulation, % inhibition at 30 μM): 16%; reduction of hA3AR binding affinity by 7-deaza modification (hA3AR; 28 vs 24, 54 vs 49, 55 vs 51): 16 fold; Ki (MOR [5]): 2.67 ± 0.28 µM; inhibition of agonist 98 in βarrestin2 assay (KOR [8]): did not inhibit; TSPO, inhibition of radioligand binding at 10 μM (class) (rat kidney TSPO; Table 5): ^e (<30% inhibition of radioligand binding at 10 μM); DOR, inhibition of radioligand binding at 10 μM (class) (DOR [1]; Table 5): ^d (30–50% inhibition of radioligand binding at 10 μM)"
CCCOC(=O)[C@@]12C[C@@H]1[C@@H](n1cnc3c(NC)nc(C#Cc4ccc(Cl)s4)nc31)[C@H](O)[C@@H]2O [compound 30],–426%,–,–,1.16 ± 0.56,–,0.437 ± 0.167,^d (<30% inhibition of radioligand binding at 10 μM),^d (<30% inhibition of radioligand binding at 10 μM),13,53,–
CNc1nc(C#Cc2ccc(Cl)s2)nc2c1ncn2[C@@H]1O[C@H](C(=O)OC)[C@@H](O)[C@H]1O [compound 46],–220%,–,–,–,–,–,–,–,12,62,"KOR, inhibition of radioligand binding at 10 μM (class) (KOR [4]; Table 3, 10 μM): ^d (30–50% inhibition of radioligand binding at 10 μM)"
CNC(=O)[C@@]12C[C@@H]1[C@@H](n1cnc3c(NC)nc(C#Cc4ccccc4Cl)nc31)[C@H](O)[C@@H]2O [compound 13],–484%,0.11,–,–,^e (30–50% inhibition of radioligand binding at 10 μM),–,–,–,–,–,"TSPO, inhibition of radioligand binding at 10 μM (class) (rat kidney TSPO; Table 1): ^e (30–50% inhibition of radioligand binding at 10 μM)"
O[C@@H]1[C@H](O)[C@@H]2C[C@@H]2[C@H]1n1cnc2c(NCc3cccc(Cl)c3)nc(C#Cc3ccccc3)nc21 [compound 47],37%,0.299,–,1.64 ± 0.16,–,–,–,–,–,–,Ki (rat σ2 receptor): 2.73 µM; Ki (hA2AAR): 0.67 µM; Ki (hNOP): > 10 µM; Ki (DOR [1]): 8 ± 1 µM
CCOC(=O)[C@@]12C[C@@H]1[C@@H](n1cnc3c(NC)cc(C#Cc4ccc(Cl)s4)nc31)[C@H](O)[C@@H]2O [compound 26],<10%,0.828,0.0294 ± 0.0138,3.81 ± 0.1,–,0.806 ± 0.263,^c (30–50% inhibition of radioligand binding at 10 μM),^c (30–50% inhibition of radioligand binding at 10 μM),5,54,Ki (rat σ2 receptor): 1.76 µM; inhibition at 10 µM (hA2AAR): 16%; inhibition at 10 µM (hA1AR): 39%
CNc1nc(C#Cc2ccc(Cl)s2)nc2c1ncn2[C@H]1[C@H](O)[C@H](O)[C@]2(C(=O)NCCN)C[C@H]12 [compound 21],–136%,–,0.158 ± 0.008,> 10,^f (<30% inhibition of radioligand binding at 10 μM),–,–,–,–,–,Ki (5HT2C serotonin receptor): 0.51 µM; Ki (KOR [4]): 2.79 µM
